Test [1] has as its system neutrophils. Put plainly: Elastase release from neutrophils, PAF. In kind it is cell-based. The conditions noted are these: Homo sapiens, Neutrophil; PAF 20 nM, cytochalasin b; read-out: IC50 to inhibit elastase release, PAF/ER. The source says: (§1) Several in vitro assays were employed to determine the ability of compounds of the invention to function as anti-inflammatory agents. One group of assays measured the ability of the compounds to inhibit adherence of polymorphonuclear neutrophils to serum coated wells (in the presence of either TNF-α or PAF) or to human umbilical vein endothelial cells (in the presence of INF-γ). Another group of assays measured the ability of the compounds to inhibit the release of elastase or superoxide from activated neutrophils. These assays were performed in the following manner.
(§2) Elastase release. Neutrophils (5×10^6 /ml in HBSS) were preincubated for 5 min at 37° C. with cytochalasin b (5 μg/ml). Experiments were performed in microtubes (96 per rack) to which were added the cell suspension, test compound (50 nM-500 μM), and one of several activators (fMLP, 200 nM, C5a, 24 nM; PAF, 20nM). After incubation (30 min, 37° C.) the tubes were centrifuged (1 min, 1500 rpm) and the supernatants assayed for elastase activity according to the following protocol:
(§3) Specifically, 10 μl of purified human neutrophil elastase standard or of sample was added to 70 μl or 0.1M Tris pH 7.5, 0.5% Brij detergent and 10 μl or 5 mM elastase substrate (methoxysuccinyl-alanyl-alanyl-prolyl-valyl paranitroanilide) in a 96 well microliter plate. Plates were indubated for 60 min at 37° C. and absorbance was read at 410 nm on a microplate reader. Elastase activity was quantitated relative to standards.

Test [2] concerns neutrophils. The experiment in a line: Elastase release from neutrophils, fMLP. In kind it is cell-based. The conditions noted are these: Homo sapiens, Neutrophil; fMLP 200 nM, cytochalasin b; read-out: IC50 to inhibit elastase release, fMLP/ER.
Excerpt: as §1, §2, §3

Test [3] has as its system neutrophil accumulation in the cutaneous Reverse Passive Arthus reaction. Put plainly: Neutrophil accumulation in the cutaneous Reverse Passive Arthus reaction in rats. Type of test: in vivo, Male Sprague Dawley rats. The following applies: rat, i.p., 1.4 mg/kg, n = 4. As for the experimental part:
(§4) Two in vivo models of inflammation were used to assess the anti-inflammatory activity of compounds of the invention. One model measures neutrophil accumulation in thioglycollate-induced peritonitis in mice. The other measures neutrophil accumulation in the cutaneous Reverse Passive Arthus reaction in rats. These assays were carried out as follows.
Male Sprague Dawley rats were treated with test compounds by intraperitoneal injection of 1.4 mg/kg in 1% Tween, pH 9.0 vehicle. After 1 hr, animals were lightly anesthetized with 2% isoflurane, v/v, injected by intravenous route with 1 ml of 5 mg/ml human serum albumin, immediately follwed by intracutaneous administration of 75 μl of a solution of 4 mg/ml of goat anti-human serum albumin. Animals were anesthetized 4 hrs after antigen-antibody treatment. Punch biopsies of the dorsal injection sites were performed with one biopsy weighed for wet/dry weight ratio determination. The remaining two skin biopsies were used for measuring myeloperoxidase content and were minced, weighed and homogenized for 30 sec in 20 mM phosphate buffer (pH 7.4). After centrifugation (20 min, 6000×g, 4° C.) the supernatant was decanted and the pellet resuspended in 50 mM phosphate buffer (pH 6.0) containing 0.5% hexadecyltrimethylammonium bromide. After three freeze/thaw cycles, the pellet was centrifuged (15 min, 20000×g, 4° C.) and 100 μl aliquots were added to 2.9 ml of assay buffer (50 mM phosphate buffer, 0.167 mg/ml o-dianiside, 0.05% H2 O2, pH 6.0). Absorbance at 460 nm was measured at 15 min. Results shown in Table IV were calculated as absorbance units/g dry weight.

In test [4] the test system is neutrophil accumulation in thioglycollate-induced peritonitis. Put plainly: Neutrophil accumulation in thioglycollate-induced peritonitis in the mouse. In kind it is in vivo, Male CF-1 mice. The conditions noted are these: for ED50: iv. On the procedure: as §4
Male CF-1 mice were pretreated with individual test compound (4-6 mice per compound) 10 min prior to thioglycollate treatment. Test compounds at various doses, solubilized in 1% Tween, pH 9.0, were injected into the tail vein. Thioglycollate (4% Brewer's thioglycollate broth in water) was administered intraperitoneally in 1 ml volume. Peritoneal lavages, performed 4 hrs following thioglycollate treatment, involved injecting 5 ml of Dulbecco's phosphate buffered saline with 0.1% bovine serum albumin and 10 units/ml heparin into the peritoneal cavity, massaging the peritoneum, and then removing fluid through peritoneal aspiration. The lavage fluid was centrifuged, red blood cells lysed with water, cells were resuspended in Hank's balanced salt solution, and leukocytes were counted with a modified Neubauer hemacytometer. Leukocyte preparations (cytospin slides) were differentially stained with a Giemsa stain. Neutrophil accumulation expressed as a percent of control was calculated after the subtraction of baseline neutrophils from all treatement groups (see Table III).

Test [5] has as its system polymorphonuclear neutrophils. The experiment in a line: Adherence of PMN to serum coated wells, PAF. In kind it is cell-based. The conditions noted are these: Homo sapiens, Polymorphonuclear neutrophil, 10 min, PAF 1 μM, read-out: IC50 to inhibit adhesion, PAF serum.
Excerpt: as §1
Isolation of PMN: Blood was drawn into syringes containing heparin (1 U/mL), from human volunteers (free of any medication for at least 48 hrs). 30 mL of blood was layered over a gradient of 10 mL 1.077 g/mL Histpaque (Sigma, St. Louis, Mo.), and centrifuged at room temperature, 400×g for 20 min. All subsequent manipulations were carried out at room temperature, with endotoxin free reagents, and using polypropylene pipettes and tubes, to prevent activation of the PMN. The pinkish PMN layer immediately above the RBC was collected and washed 2× with Hank's buffered salt solution with calcium and magnesium, 0.2% glucose, and 10 mM HEPES, pH 7.2 (HBSS++) by centrifugation at 400×g for 10 min. Pellets were suspended in 8 mL 0.9% NaCl, and RBC lysed by the addition of 24 mL water for 40 sec, followed by the addition of 8 mL of 3.6% NaCl. After centrifugation at 200×g for 8 min, RBC ghosts were aspirated from the top of the PMN pellet, and cells washed with HBSS++. PMN adherence to protein substrates: 96 well tissue culture plates were coated with 10% pooled human serum (North American Biological,;, Miami, Fla.) in phosphate buffered saline (PBS) for 1 hr at 37° C., followed by washing 3× with PBS. Test compounds were prepared in DMSO as 100× stocks. PMN (4×10^6 /mL) were preincubated with test compounds for 10 min at 37° C. in serum-coated wells. Tumor necrosis factor (TNF-α) was added to 3 nM or platelet aggregation facor (PAF) to 1 μM, and adherence was carried out for 20 or 10 min, respectively. Nonadherent cells were aspirated, and wells washed two times with warm PBS with calcium and magnesium, with blotting of the inverted plate following each aspiration. Adherent PMN were quantitated using a BCA protein assay (Pierce, Rockford, Ill.).

The mark [6] stands for this setting: Neutrophil, mouse, i.v., thioglycollate-induced peritonitis, 4 hrs, read-out: ED50.

Like-named read-outs stand apart in the source and are kept apart here.

Consider `O=C(O)c1ccc(/C=C/c2ccccc2-c2ccccc2)cc1` [NPC 18730, 4-[2-(biphenyl)-E-ethenyl]benzoic acid], for which the IC50 with neutrophils [1] is 3230 nM; in the test on neutrophils [2], 6250 nM; in test [5], 2400 nM. The “Reverse Passive Arthus % Inhibition” value in test [3] was 40%. Further, the ED50 (commonly the dose at which the effect has come halfway, by size or by number of responders) in test [4] (4 h) is 0.8 mg/kg. Moreover, the “% Inhibition of neutrophil accumulation” value is 16% in test [4] (mouse, i.v., 0.3 mg/kg, 4 hrs); 20% in test [4] (mouse, i.v., 1 mg/kg, 4 hrs); 67% in test [4] (mouse, i.v., 3 mg/kg, 4 hrs); 37% in test [4] (mouse, i.v., 10 mg/kg, 4 hrs); 48% in test [4] (mouse, i.v., 30 mg/kg, 4 hrs).

As for `O=C(O)c1ccc(C=Cc2ccccc2Oc2ccccc2)cc1` [NPC 18801, 2'-phenoxy-4-stilbenecarboxylic acid], the IC50 amounted to 600 nM with neutrophils [1], 7500 nM in the test with neutrophils [2] and 860 nM in test [5]. In test [3], the “Reverse Passive Arthus % Inhibition” value stood at 3%. The ED50 in test [4] (setting [6]) is less than 10 mg/kg. The “% Inhibition of neutrophil accumulation” value amounted to 36% in test [4] (mouse, i.v., 3 mg/kg, 4 hrs); 65% in test [4] (mouse, i.v., 10 mg/kg, 4 hrs); 65% in test [4] (mouse, i.v., 30 mg/kg, 4 hrs).

As to `O=C(O)c1ccc(/C=C/c2ccccc2-c2ccc(Cl)c(Cl)c2)cc1` [NPC 18818, 4-{2-[2-(3,4-dichlorophenyl)phenyl]-(E)-ethenyl] benzoic acid], the figures for the IC50 (in the test with neutrophils [1]; in the test on neutrophils [2]; in test [5]) were 810 nM, 1200 nM and 410 nM, respectively. Moreover, in test [3], the “Reverse Passive Arthus % Inhibition” value came to 8%. In test [4] (setting [6]), the median effective dose (ED50) is less than 30 mg/kg. For the same compound, the “% Inhibition of neutrophil accumulation” value in test [4] (mouse, i.v., 3 mg/kg, 4 hrs) amounted to 35%; in test [4] (mouse, i.v., 10 mg/kg, 4 hrs), 34%; in test [4] (mouse, i.v., 30 mg/kg, 4 hrs) it was 52%.

The record behind these values is patent US5530157A, “Anti-inflammatory benzoic acid derivatives” (Scios Nova Inc., priority 1995, dated 1996).
